Measurements as given in patent US20240246905A1 (University of Leicester, priority 2021, published 2024).
Converted amounts (≈) assume the structure as drawn. Read-outs that look alike come from different tables or passages of the source.

Experiments:
[1] = test system: MRSA 252 biofilms; assay: Biofilm prevention, crystal violet; type: cell-based, S. aureus; details: 50 μg/mL
Description: The potential of the lead compounds to both inhibit S. aureus biofilm growth and to disrupt more established biofilms was next investigated. Since previous studies had determined each compounds MIC against planktonic MRSA bacteria, it was hypothesized that a compound concentration of 50 μg/mL (at or above the MIC of all lead compounds except 2) was a reasonable concentration to begin the study.
Prevention: 100 μL of a mixture of TSB supplemented with 0.5% glucose and antibiotic (1:1) was added to individual wells in 96-well plate. The wells were then inoculated with […] an overnight culture of bacteria and incubated at 37° C. for 24 hours. Following the pre-determined length of time, the medium in each well was discarded, washed twice with PBS before 150 μL of a 1% crystal violet solution was added and the plate was left to incubate at room temperature for a further 30 minutes. Each well was then washed a further 4× with PBS before 200 μL 7% acetic acid was added. The absorbance of each well was then measured at OD595.

[2] = test system: C. tropicalis ATCC 450; assay: Anti-fungal MIC (CO-ADD); type: cell-based
Description: (§1) Fungal strains were cultured for 3 days on Yeast Extract-Peptone Dextrose (YPD) agar at 30° C. A yeast suspension of 1×10^6 to 5×10^6 CFU/mL (as determined by OD530) was prepared from five colonies. […] All plates were covered and incubated at 35° C. for 36 hours without shaking. […] The absorbance was measured using a Biotek Multiflo Synergy HTX plate reader. In both cases, the percentage of growth inhibition was calculated for each well, using the negative control (media only) and positive control (fungi without inhibitors) on the same plate. […] Due to a higher variance in growth and inhibition, a lower threshold was applied to the data for C. neoformans. In addition, the maximal percentage of growth inhibition is reported as DMax, indicating any compounds with marginal activity.

[3] = test system: C. tropicalis ATCC 750; assay: Anti-fungal MIC (CO-ADD); type: cell-based
Description: as §1

[4] = test system: C. deuterogattii ATCC 32609; assay: Anti-fungal MIC (CO-ADD); type: cell-based
Description: as §1

[5] = test system: C. albicans ATCC 90028; assay: Anti-fungal MIC (CO-ADD); type: cell-based
Description: as §1

[6] = test system: C. neoformans H99; ATCC 208821; assay: Anti-fungal MIC (CO-ADD); type: cell-based
Description: as §1

[7] = test system: C. glabrata ATCC 90030; assay: Anti-fungal MIC (CO-ADD); type: cell-based
Description: as §1

[8] = test system: MRSA 252, MSSA 476, S. aureus 15981, P. aeruginosa PA01 and E. coli DH5α; assay: Disc diffusion primary screening, five strains (statements in words); type: cell-based; details: 500 μg/mL
Description: As such, the minimum inhibition concentration (MICs) of biologically active compounds were further assessed using the broth dilution method against the S. aureus strains; MRSA 252 and MSSA 476 (Table 1). The results of both assays enabled key structural elements and functional groups required for the compounds to retain their antibiotic activity to be identified.
The antibiotic activity was determined using a Kirby-Bauer method according to Clinical Standard Laboratory Institute (CSLI) Guidelines (2017). Briefly, 180 μL of a 1 in 200 dilution (in LB or TSB) of overnight cultures of selected Gram negative and Gram positive bacteria were applied to an agar plate containing the solid growth medium, Mueller-Hinton agar (MHA). Sterile discs, inoculated with 50 μL of antibiotic, were first added to the agar plate before the plates were incubated for 24 hours at 37° C. Following incubation, the zone of inhibition (if it existed) was recorded.

[9] = test system: S. aureus AS 68 biofilm; assay: Biofilm eradication, 24 hour old biofilms, crystal violet; type: cell-based
Description: The attenuation of biomass by the lead compounds in the 24 hour old biofilms was measured by crystal violet stain assay. […] Further assays were performed to study the biofilm attenuation properties of compound 41. At concentrations, as low as 2 μg/ml (the lowest concentration tested), there was still an 86% reduction of the biofilm depth (FIG. 4).
Eradication: To develop biofilms, 2.5 μL of an overnight culture of bacteria was added to individual wells in a 96-well plate each containing 100 μL TSB supplemented with 0.5% glucose and incubated at 37° C. for 24 hours. Following this, the medium in each well was first discarded and washed once with PBS before set concentrations of antibiotic was added and incubated at 37° C. for a further 18 hours. The medium in each well was then discarded, washed 4× with PBS before 150 μL 1% crystal violet was added and the plate was left to incubate at room temperature for a further 30 minutes. Following incubation, the medium in each well was first discarded before being washed 4× with PBS. 200 μL 7% acetic acid was then added and the wells were measured at OD595.

[10] = Acid stability in 1M acetic acid (NMR, IR); type: physicochemical; details: 6 hours in 1M acetic acid (pH 2.37)
Description: Also, well documented in the literature, is the hydrolysis of isocyanide compounds to their corresponding formamide in acidic conditions. Due to the acidic conditions present in the stomach it was important to identify whether the lead compounds might hydrolyse to their corresponding formamide compounds in-vivo. To determine this, Compound 41 was stirred for 6 hours in 1M acetic acid (pH 2.37), mimicking the length of time oral drugs are present in the stomach. The NMR data obtained after 6 hours was identical to that of compound 41 before the assay (FIG. 18). In addition to the NMR, IR analysis further confirmed the presence of the isocyanide group post treatment with acid, as shown by the sharp signal at approximately 2100 cm^−1.

[11] = test system: E. coli strain DH5a; assay: MIC with and without outer membrane permeabilisation; type: cell-based; details: Escherichia coli
Description: Antibiotic MIC's were determined by a broth micro-dilution method according to Clinical Standard Laboratory Institute (CSLI) Guidelines (2017). Briefly, 96-well microplates, each containing 195 μL of the 1:2 dilution antibiotic in TSB, were inoculated with 5 μL of overnight cultured bacteria, diluted to give a starting bacterial concentration of 5×10^5 CFU/mL. The optical density of each well inoculated was recorded every 12 minutes over an 18 hour period at 37° C. The data from this was plotted in OriginPro8 (OriginLab) and sigmoidal curves fitted using the dose response function. Fitted values for each curve were used to calculate the MIC.

[12] = Candida tropicalis, ATCC450, read-out: MIC
[13] = Candida tropicalis, ATCC750, read-out: MIC
[14] = Candida albicans, ATCC90028, read-out: MIC
[15] = Cryptococcus neoformans, ATCC208821, read-out: MIC
[16] = Nakaseomyces glabratus, ATCC90030, read-out: MIC

Row | Compound | MIC [2, 12] [µg/mL] | MIC [3, 13] [µg/mL] | MIC ([4]; read-out: MIC) [µg/mL] | MIC [5, 14] [µg/mL] | MIC [6, 15] [µg/mL] | MIC [7, 16] [µg/mL] | antibiotic activity in disc diffusion assays (in words) [8] | also measured
1 | [C-]#[N+]C=Cc1ccc(O)cc1 [Compound 2, 4-(2-Isocyanovinyl)phenol] |  |  |  |  |  |  |  | prevention of MRSA 252 biofilm growth [1]: entirely prevented biofilm formation
2 | [C-]#[N+]C=Cc1cc(Br)ccc1O [Compound 13] | 4 | 16 | 4 | 4 to 8 | 4 to 8 | > 32 |  | 
3 | [C-]#[N+]C=Cc1ccc(O)c(Br)c1 [Compound 14] | > 32 | > 32 | 32 | 32 | > 32 | > 32 |  | 
4 | [C-]#[N+]/C=C/c1ccc(O)cc1/C=C/c1ccccc1 [Compound 36, 4-((E Z)-2-Isocyanovinyl)-3-((E)-styryl)phenol] | 2 | 32 | 2 | 16 | 4 to 8 | 32 | retained antibiotic activity | 
5 | [C-]#[N+]/C=C/c1ccc(NC(C)=O)cc1/C=C/c1ccccc1 [Compound 41, N-(4-((E)-2-Isocyanovinyl)-3-((E)-styryl)phenyl)acetamide] | 1 to 2 | 32 | 1 to 2 | 2 to 4 | 2 | 32 | excellent activity against all three S. aureus strains, as well as P. aeruginosa PAO1 | reduction of the biofilm depth ([9]; S. aureus AS 68, 2 μg/ml (the lowest concentration tested)): 86%; attenuation of biomass in 24 hour old biofilms ([9]; S. aureus AS 68, 50 μg/mL, crystal violet): significant attenuation in biomass; NMR data after acid exposure [10]: identical; MIC ([11]; not permeabilised): 280 µg/mL (≈ 971 µM); MIC ([11]; outer membrane permeabilised with polymixin B nanopeptides): 16 µg/mL (≈ 55.5 µM)
6 | (2-Isocyanovinyl)-4-acetaamido benzene [Compound 22] |  |  |  |  |  |  |  | MIC [2]: >32 µg/mL; MIC [3]: >32 µg/mL; MIC [4]: >32 µg/mL; MIC [5]: 16 µg/mL; MIC [6]: >32 µg/mL; MIC [7]: >32 µg/mL
